Molecules are shown by their SMILES.

One test has as its target T1, FrmB (Staphylococcus aureus, UniProt A0A0H3KFB7).
T1 construct: made in house; host or cells: E. coli BL21 (DE3)
Put plainly: 4-Nitrophenyl ester substrate activity assay. The conditions noted are these: 1 µM protein, 1 mM substrate, 37°C, A405. The format is biochemical. The method, then:
(§1) 4-Nitrophenyl substrate-specific activity was determined in 50 µL reactions containing 25 mM Tris pH 7.5, 250 mM NaCl, 1 mM MnCl2, 10% glycerol, 1 µM protein, and 1 mM 4-nitrophenyl substrate. The tested substrates, 4-nitrophenyl acetate (Sigma, N8130), 4-nitrophenyl butyrate (Sigma N9876), and 4-nitrophenyl trimethylacetate (Sigma 135046), were resuspended in acetonitrile at 100 mM. Reactions without 4-nitrophenyl substrate were preincubated at 37°C for 10 min prior to assay initiation via substrate addition. Conversion of 4-nitrophenyl substrates to 4-nitrophenol was tracked photometrically at 37°C and A405nm. Experiments were performed in triplicate with technical duplicates.

In a further test the test system is GloB. Put plainly: 4-Nitrophenyl ester substrate activity assay. Conditions: 1 µM protein, 1 mM substrate, 37°C, A405. The format is biochemical, Staphylococcus aureus. The procedure: as §1
The next test has as its system S. aureus. As to the kind of experiment: Microfluidics live cell imaging of pro-fluorescent substrate activation. The conditions noted are these: 10 µM pro-fluorescent substrate, 37°C, 30 min of observation. The format is cell-based, Staphylococcus aureus. The procedure: Overnight cultures of S. aureus were grown in LB media, back diluted 1:500, and grown to early exponential phase (OD600 0.1–0.15), then washed in 1× PBS, and loaded on a bacterial CellASIC ONIX2 microfluidic plate. Prior to cell loading, the microfluidics plate lines were flushed with 1× PBS + 1% DMSO or 10 µM fluorescent pro-substrate in 1× PBS + 1% DMSO, and the plate was preincubated at 37°C. The microfluidics plate was loaded onto a Nikon Ti-E inverted microscope (Nikon Instruments, Inc) equipped with a 100× Plan N (N.A. = 1.45) Ph3 objective, SOLA SE Light Engine (Lumencor), heated control chamber (OKO Labs), and an ORCA-Flash4.0 sCMOS camera (Hammamatsu Photonics). The GFP filter set was purchased from Chroma Technology Corporation. Cells were loaded into the chamber until a single field of view contained 50–150 cells or cell clusters. […] Images were acquired every two min for a total of 44 min, and all experiments were undertaken at 37°C. The phase-contrast exposure time was kept constant at 200 ms, and the fluorescent channel exposure time was kept constant at 500 ms. For fluorescent images, the gain remained constant across all experiments. Image capture and analysis was performed using Nikon Elements Advanced Research software. Individual cells or clusters of cells were auto detected in the fluorescent channel using the intrinsic background fluorescence of each cell. […] Fluorescent intensity for each individual cell or cluster of cells was measured through the duration of the experiment and normalized to the area of the identified cell to yield the mean fluorescent intensity. Background cell autofluorescence was corrected by subtracting the average fluorescence across all identified objects from t = 0 through t = 10. Each experiment was performed in duplicate, with >50 individual cells or clusters analyzed in each experiment.

Another test deals with human sera. Put plainly: Esterase substrate specificity, fluorogenic SAR library kinetics in serum. The class given is in vitro ADME.
A further test concerns mouse sera. The description is as above. The format is in vitro ADME.
The target of test [1] is T2, SaFrmB (Staphylococcus aureus, UniProt A0A0H3KFB7).
T2 construct: made in house; host or cells: E. coli BL21 (DE3)
T2 sequence (A0A0H3KFB7 1-253): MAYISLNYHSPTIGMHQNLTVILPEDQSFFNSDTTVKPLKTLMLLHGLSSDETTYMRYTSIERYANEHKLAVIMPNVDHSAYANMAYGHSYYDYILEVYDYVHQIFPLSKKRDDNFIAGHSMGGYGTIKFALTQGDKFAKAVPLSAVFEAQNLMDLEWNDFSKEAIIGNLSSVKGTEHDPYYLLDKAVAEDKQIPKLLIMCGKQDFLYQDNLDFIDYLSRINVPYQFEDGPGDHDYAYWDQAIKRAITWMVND
As to the kind of experiment: Esterase substrate specificity, fluorogenic SAR library kinetics. The class given is biochemical. Conditions: for Km: SaFrmB 15 µg/mL, pH 7.5, 37°C; for In vitro activity (catalytic efficiency) for FrmB, in words: fluorogenic ester substrate. The gist of the method: (§2)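 Kinetics used purified enzymes at 15 µg/mL in 25 mM Tris pH 7.5, 250 mM NaCl, 1 mM MgCl2, 10% glycerol at 37 °C. Fluorescein release (ex 485/em 520 nm) was followed 15 min and converted via a standard curve. Initial rates over substrate concentrations were fitted to Michaelis–Menten for Km and Vmax, with kcat from enzyme amount.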

In test [2] the target is T3, SaGloB (Staphylococcus aureus, UniProt P0DY75).
T3 sequence (P0DY75 1-207): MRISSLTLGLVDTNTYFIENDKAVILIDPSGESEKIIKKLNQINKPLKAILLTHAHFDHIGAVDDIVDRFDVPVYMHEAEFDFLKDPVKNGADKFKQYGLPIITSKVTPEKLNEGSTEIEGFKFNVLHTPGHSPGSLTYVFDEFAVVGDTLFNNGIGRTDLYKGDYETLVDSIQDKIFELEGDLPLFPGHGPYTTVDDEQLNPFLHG
The description is as above. The format is biochemical. The gist of the method: as §2

The target of test [3] is T2, SaFrmB. As to the kind of experiment: Glyoxalase II activity assay (DTNB coupled). The conditions noted are these: 1 mM substrate, 37°C, 412 nm. The class given is biochemical. The procedure: (§3) Glyoxalase II activity was assessed as previously with minor changes ([Mikati et al., 2020]; [Stamp et al., 2010]). Briefly, reactions were mixed to form a final concentration of 25 mM Tris pH 7.5, 250 mM NaCl, 1 mM MnCl2, 10% glycerol, 200 µM 5,5’-dithiobis(2-nitrobenzoic acid) (DTNB, Sigma D8130), 1 mM D-lactoylglutathione (Sigma L7140), and 0.15–0.63 µg protein (130–550 nM GloB, 100–430 nM FrmB). Protein concentrations were varied to ensure the reaction was linear across protein concentrations. Reactions without D-lactoylglutathione were pre-incubated at 37°C for 10 min prior to assay initiation with the addition of substrate. Release of glutathione from D-lactoylglutathione was quantified spectrophotometrically at 37°C and 412 nm through the conversion of DTNB to TNB. Experiments were performed in triplicate with technical duplicates.

For test [4], the target named is T3, SaGloB. Put plainly: Glyoxalase II activity assay (DTNB coupled). The class given is biochemical. Conditions: 1 mM substrate, 37°C, 412 nm. The method, then:
as §3

On to `CC(=O)Oc1ccc([N+](=O)[O-])cc1` [4-nitrophenyl acetate], for which, on FrmB, the “Hydrolysis of 4-nitrophenyl ester by FrmB, in words” value is “modest activity”. Besides, the “Hydrolysis of 4-nitrophenyl ester by GloB, in words” value in the test with GloB was “no detectable activity”.
For the molecule `CCCC(=O)Oc1ccc([N+](=O)[O-])cc1` [4-nitrophenyl butyrate], the “Hydrolysis of 4-nitrophenyl ester by FrmB, in words” value on FrmB was “modest activity”. For the same molecule, in the test with GloB, the “Hydrolysis of 4-nitrophenyl ester by GloB, in words” value is “no detectable activity”.
The corresponding values for `CC(C)(C)C(=O)Oc1ccc([N+](=O)[O-])cc1` [4-nitrophenyl trimethylacetate] are “no activity” and “no detectable activity”.
Regarding `CCOCCC(=O)OCOc1ccc2c(c1)Oc1cc(OCOC(=O)CCOCC)ccc1C21OC(=O)c2ccccc21` [5O], in the test on S. aureus, the “Intracellular activation (fluorescence) in live S. aureus, in words” value is on record as “never appreciably activates”. For the same molecule, in the test with human sera, the Km is 35.4 µM and the Vmax came to 2.25 pmol*min-1*mg sera-1. Further, in the test on mouse sera, the Michaelis-Menten constant (Km) was more than 50 µM. Moreover, on SaFrmB [1], the Michaelis constant (Km) was more than 50 µM and the “In vitro activity (catalytic efficiency) for FrmB, in words” value is listed as “poor activity”. Besides, on SaGloB [2] (SaGloB, normalised to uncatalysed hydrolysis rate), the kcat/kuncat is 17.0 103. In addition, the “In vitro activity (catalytic efficiency) for GloB, in words” value on SaGloB [2] (fluorogenic ester substrate) is given as “moderate activity”.
With `CCC(CC)C(=O)OCOc1ccc2c(c1)Oc1cc(OCOC(=O)C(CC)CC)ccc1C21OC(=O)c2ccccc21` [9C], the “Intracellular activation (fluorescence) in live S. aureus, in words” value in the test with S. aureus was “never appreciably activates”. The Km with human sera is more than 50 µM; with mouse sera, 12.3 µM; on SaFrmB [1], more than 50 µM; on SaGloB [2] (SaGloB, fluorogenic ester substrate), more than 50 µM. Further, the Vmax with mouse sera is listed as 3.18 pmol*min-1*mg sera-1. For the same molecule, the “In vitro activity (catalytic efficiency) for FrmB, in words” value on SaFrmB [1] is given as “poor activity”. In addition, at SaGloB [2] (fluorogenic ester substrate), the “In vitro activity (catalytic efficiency) for GloB, in words” value is “poor activity”.
For `CC(O)C(=O)SCC(NC(=O)CCC(N)C(=O)O)C(=O)NCC(=O)O` (stereo not drawn) [S-lactoylglutathione], the results for the “Glyoxalase II activity (hydrolysis of substrate), in words” value on SaFrmB [3] and on SaGloB [4] were “lacks appreciable glyoxalase activity” and “specific activity comparable to previously characterized microbial type II glyoxalases”, respectively.

By Km is commonly meant the concentration of substrate that gives half-maximal velocity.
